Read-outs that look alike come from different tables or passages of the source.
Legend:
[1] = In vivo p.o. dosing: plasma and colon tissue concentrations (Protocols 1 and 2); set-up: species or system female C57BL/6 mice; settings: female, C57BL/6, mouse, colon, po; mice, 25 mg/kg p.o., Time = 4 h; read-out: Colon Concentration After p.o. Dosing, Mean
Protocol: These protocols are described below under the heading In vivo Studies. Three non-fasted female C57BL/6 mice were orally administered test compound at a dose of 25 mg/kg p.o. as a solution in 20% hydroxypropyl-beta-cyclodextrin (HPβCD) at a dose volume of 5 mL/kg. Blood samples were collected at 0.5, 2, and 4 h post dose via retro-orbital bleed or venipuncture of the dorsal metatarsal vein. Blood samples were collected into tubes containing anticoagulant (Heparin-Na) and placed on wet ice. The plasma fraction was separated by centrifugation and frozen at −20° C. for up to 4 h and −80° C. after 4 h unless analyzed shortly after sample collection. Colon samples were collected at 4 h post dose. […] The colon was further washed by putting it in 5 mL of saline and shaken for 5 seconds. The colon sample was then patted dry, weighed, and homogenized as 1 part tissue (g) to 4 parts HPLC grade water (mL). Concentrations of the compound in plasma and colon homogenate were determined using a qualified liquid chromatography-triple quadrupole mass spectrometry (LC-MS/MS) method. […] Three non-fasted female C57BL/6 mice were orally administered test compound at a dose of 25 mg/kg p.o. as a solution in 20% HPβCD at a dose volume of 5 mL/kg. Blood samples were collected at 0.5, 2, and 4 h post dose via retro-orbital bleed or dorsal metatarsal vein. Blood samples were collected into tubes containing anticoagulant (Heparin-Na) and placed on wet ice. The plasma fraction was separated by centrifugation and frozen at −20° C. for up to 4 h and −80° C. after 4 h unless analyzed shortly after sample collection. Colon samples were collected at 4 h post dose. From 2 cm below the cecum, a 4 cm sample of the colon was dissected, cut open on the longitudinal axis, and the solid contents removed by flushing with 2 mL of saline. The colon was further washed by putting it in 5 mL of saline and shaken for 5 seconds. The colon sample was then patted dry, weighed, and homogenized as 1 part tissue (g) to 4 parts HPLC grade water (mL). Concentrations of the compound in plasma and colon homogenate were determined using a qualified liquid chromatography-triple quadrupole mass spectrometry (LC-MS/MS) method.

[2] = Solubility assays in simulated gastric and simulated intestinal fluids; assay type: physicochemical; settings: thermodynamic from solid, 2-5 days
Protocol: Test compounds were dissolved in DMSO at a concentration of 10 mM. The test compounds were dispensed (20 μL) into Nunc 1-mL-96-Deep-Well-PP plates, and the DMSO was evaporated via nitrogen blow down from a TurboVap 96 for 6 hours or until a dry residue was produced. Then, 400 μL of solubility media was added to the well containing the dry solid. […] After the incubation period, the samples were filtered through an AcroPrep 1-mL-96-Filter plate into a new 2-mL-96-Deep-Well-PP plate, and the supernatants were quantified by UV-HPLC using a 3-point calibration ranging from 0.004-0.55 mM. The solubility for each compound was calculated from the following equation: […] Solubilities are reported as long as the compound under study was sufficiently stable to complete the corresponding solubility determination.

P-gp (MDR1) = experiment: MDCK-MDR1 permeability assay; assay type: in vitro ADME; settings: dog, MDCK-MDR1, pH 7.4, @ 5 μM
Protocol: Permeability measurements were conducted according to the Cyprotex protocol using the MDCK-MDR1 cell line obtained from the NIH (Rockville, Md., USA). Cells between passage numbers 6-30 were seeded onto a Multiscreen Plate™ (Millipore) at a cell density of 3.4×10^5 cells/cm^2 and cultured for three days before permeability studies were conducted. The cells in this assay form a cohesive sheet of a single cell layer filing the surface area of the culture dish, also known as a confluent monolayer, and on day four the test compound was added to the apical side of the membrane and the transport of the compound across the monolayer was monitored over a time period of 60 min.
Test compounds were dissolved in DMSO at a concentration of 10 mM. The dosing solutions were prepared by diluting test compound with assay buffer (Hanks Balanced Salt Solution), pH 7.4, at a final concentration of 5 μM. For assessment of apical to basolateral (“A-B”) permeability, buffer was removed from the apical compartment and replaced with test compound dosing solution with or without the permeability glycoprotein (“PgP”, “P-gP”, “Pgp” or “P-gp”) inhibitor elacridar (2 μM). For assessment of basolateral to apical (“B-A”) permeability, buffer was removed from the companion plate and replaced with test compound dosing solution. Incubations were carried out in duplicate at 37° C. in an atmosphere of 5% CO2 with a relative humidity of 95%. Each assay included the reference markers propranolol (high permeability) and prazosin (PgP substrate). After incubation for 60 minutes, apical and basolateral samples were diluted and test compounds quantified by LC/MS/MS using an 8-point calibration in the range 0.0039 to 3 μM with appropriate dilution of the samples (receiver dilution factor=1; donor and C0 dilution factor=10). The permeability coefficient (Papp) for each compound was calculated from the following equation: Papp=(dQ/dt)/(C0×S), where dQ/dt is the rate of permeation of the drug across the cells, C0 is the donor compartment concentration at time zero, and S is the area of the cell monolayer.
The second and third columns in Table 7 show the values of Papp(A-B) for the apical-to-basolateral compound transport without (second column) and with a P-gp inhibitor (third column, noted as P^eapp(A-B)) that was elacridar. Papp(A-B) gives an indication of permeation extent across the cells in this assay, which is envisaged to model the transcellular transport across Pgp-expressing cells, such as Pgp-expressing gastrointestinal tract cells. P^eapp(A-B) values (Papp(A-B) in the presence of the P-gp inhibitor) given in column 3 are determined to confirm the role of P-gp in the compound efflux. […] Test compound efflux ratios are given in the fifth column of Table 7 as Papp(B-A)/Papp(A-B) by using the corresponding permeability coefficient values from the fourth and second columns in the same table.

concentration at 4 h [1]: 4780 ng/g | solubility ([2]; fassif, simulated intestinal fluid, fasted state pH 6.5, ambient temperature, read-out: SIF solubility): > 400 µM | solubility ([2]; simulated gastric fluid, ambient temperature, read-out: SGF solubility): > 400 µM | Papp A→B at 60 min, 5 μM (P-gp (MDR1); apical to basolateral, without P-gp inhibitor): < 0.4 ×10⁻⁶ cm/s | Papp B→A at 60 min, 5 μM (P-gp (MDR1); basolateral to apical): 1.1 ×10⁻⁶ cm/s
SMILES: N#CC[C@H]1CC[C@H](n2c(CC(=O)Nc3cc[nH]n3)nc3cnc4[nH]ccc4c32)CC1 [Ex. 74, 2-(1-((1r,4r)-4-(Cyanomethyl)cyclohexyl)-1,6-dihydroimidazo[4,5-d]pyrrolo[2,3-b]pyridin-2-yl)-N-(1H-pyrazol-3-yl)acetamide]
